According to ChEMBL document CHEMBL3351679, “Radioiodinated benzyloxybenzene derivatives: a class of flexible ligands target to β-amyloid plaques in Alzheimer's brains” (J Med Chem, 2014):
Blank lines part the entries; values can stand above or below the compound they belong to.

How the values were obtained:
[1] = target: T1, Amyloid-beta precursor protein (Homo sapiens, UniProt P05067); test: Displacement of [125I]1-Iodo-4-((4-methoxyphenoxy)methyl)benzene from amyloid beta42 (unknown origin) after 3 hrs by gamma counting
T1 sequence (P05067 whole entry): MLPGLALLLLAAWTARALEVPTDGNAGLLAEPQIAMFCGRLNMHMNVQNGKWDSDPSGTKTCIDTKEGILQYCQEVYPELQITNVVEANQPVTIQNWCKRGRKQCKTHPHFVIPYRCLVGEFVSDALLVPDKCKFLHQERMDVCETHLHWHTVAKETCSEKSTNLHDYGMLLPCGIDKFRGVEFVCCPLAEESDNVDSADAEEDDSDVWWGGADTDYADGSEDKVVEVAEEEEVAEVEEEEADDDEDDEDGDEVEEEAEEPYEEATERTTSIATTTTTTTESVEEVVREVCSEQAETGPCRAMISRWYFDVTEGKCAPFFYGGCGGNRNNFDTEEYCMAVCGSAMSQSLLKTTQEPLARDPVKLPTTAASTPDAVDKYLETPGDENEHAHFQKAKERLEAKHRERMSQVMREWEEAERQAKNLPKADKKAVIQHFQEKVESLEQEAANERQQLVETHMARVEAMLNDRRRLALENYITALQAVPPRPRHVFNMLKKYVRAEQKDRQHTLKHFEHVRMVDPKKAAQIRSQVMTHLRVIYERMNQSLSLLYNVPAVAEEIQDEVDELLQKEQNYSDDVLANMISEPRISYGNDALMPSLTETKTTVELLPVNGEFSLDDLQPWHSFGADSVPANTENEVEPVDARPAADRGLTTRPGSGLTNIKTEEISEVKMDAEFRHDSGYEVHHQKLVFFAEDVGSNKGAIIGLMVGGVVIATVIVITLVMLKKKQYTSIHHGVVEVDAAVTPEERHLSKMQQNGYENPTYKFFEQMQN

[2] = tested on: Liver; test: In vivo biostability in ICR mouse liver assessed as radioactivity at 250 uCi, iv measured at 60 mins post dose; assay type: ADME, organism-based; details: 1 h
[3] = tested on: Brain; test: In vivo biostability in ICR mouse brain assessed as radioactivity at 250 uCi, iv measured at 10 mins post dose; assay type: ADME, organism-based
[4] = tested on: Brain; test: In vivo biostability in ICR mouse brain assessed as radioactivity at 250 uCi, iv measured at 60 mins post dose; assay type: ADME, organism-based; details: 1 h
[5] = In vivo biostability in ICR mouse feces assessed as radioactivity at 250 uCi, iv measured at 60 mins post dose; assay type: ADME, organism-based; details: 1 h
[6] = tested on: Blood; test: In vivo biostability in ICR mouse blood assessed as radioactivity at 250 uCi, iv measured at 2 mins post dose; assay type: ADME, organism-based
[7] = tested on: Plasma; test: Biostability in mouse plasma assessed as radioactivity at 30 uCi at 37 degC measured at 60 mins by HPLC; assay type: ADME, cell-free; details: 1 h
[8] = tested on: Brain; test: In vivo biostability in ICR mouse brain assessed as radioactivity at 250 uCi, iv measured at 2 mins post dose; assay type: ADME, organism-based
[9] = tested on: Blood; test: In vivo biostability in ICR mouse blood assessed as radioactivity at 250 uCi, iv measured at 10 mins post dose; assay type: ADME, organism-based
[10] = target: T1, Amyloid-beta precursor protein; test: Binding affinity to amyloid beta42 (unknown origin) after 3 hrs by gamma counting
[11] = tested on: Liver; test: In vivo biostability in ICR mouse liver assessed as radioactivity at 250 uCi, iv measured at 30 mins post dose; assay type: ADME, organism-based; details: 0.5 h
[12] = tested on: Liver; test: In vivo biostability in ICR mouse liver assessed as radioactivity at 250 uCi, iv measured at 10 mins post dose; assay type: ADME, organism-based
[13] = tested on: Liver; test: In vivo biostability in ICR mouse liver assessed as radioactivity at 250 uCi, iv measured at 2 mins post dose; assay type: ADME, organism-based
[14] = In vivo biostability in ICR mouse urine assessed as radioactivity at 250 uCi, iv measured at 10 mins post dose; assay type: ADME, organism-based
[15] = In vivo biostability in ICR mouse urine assessed as radioactivity at 250 uCi, iv measured at 30 mins post dose; assay type: ADME, organism-based; details: 0.5 h
[16] = In vivo biostability in ICR mouse feces assessed as radioactivity at 250 uCi, iv measured at 30 mins post dose; assay type: ADME, organism-based; details: 0.5 h
[17] = tested on: Brain; test: Biodistribution in ICR mouse brain at 250 uCi, iv measured at 2 mins post dose; assay type: ADME, organism-based; details: in vivo
[18] = Partition coefficient, log D of the compound; assay type: physicochemical; details: octanol/water
[19] = tested on: Liver; test: Biostability in mouse liver homogenate assessed as radioactivity at 30 uCi at 37 degC measured at 60 mins by HPLC; assay type: ADME, tissue-based; details: tissue homogenate, 1 h
[20] = tested on: Blood; test: In vivo biostability in ICR mouse blood assessed as radioactivity at 250 uCi, iv measured at 30 mins post dose; assay type: ADME, organism-based; details: 0.5 h
[21] = tested on: Brain; test: Biodistribution in ICR mouse brain at 250 uCi, iv measured at 60 mins post dose; assay type: ADME, organism-based; details: in vivo, 1 h
[22] = tested on: Blood; test: In vivo biostability in ICR mouse blood assessed as radioactivity at 250 uCi, iv measured at 60 mins post dose; assay type: ADME, organism-based; details: 1 h
[23] = In vivo biostability in ICR mouse urine assessed as radioactivity at 250 uCi, iv measured at 60 mins post dose; assay type: ADME, organism-based; details: 1 h
[24] = tested on: Brain; test: Ratio of drug uptake in ICR mouse brain at 250 uCi, iv measured at 2 mins post dose to drug uptake in ICR mouse brain at 250 uCi, iv measured at 60 mins post dose; assay type: ADME, organism-based; details: in vivo
[25] = tested on: Brain; test: In vivo biostability in ICR mouse brain assessed as radioactivity at 250 uCi, iv measured at 30 mins post dose; assay type: ADME, organism-based; details: 0.5 h

Ki ([1]; read-out: Ki): 24.3 nM
Ki ([1]; read-out: pKi (converted)): 24.5 nM
Compound: COc1ccc(OCc2ccc(I)cc2)cc1

Ki ([1]; read-out: Ki): 131 nM
Ki ([1]; read-out: pKi (converted)): 132 nM
Compound: COc1cccc(OCc2ccc(I)cc2)c1

Ki ([1]; read-out: Ki): 5160 nM
Ki ([1]; read-out: pKi (converted)): 5130 nM
Compound: COc1ccccc1OCc1ccc(I)cc1

Ki ([1]; read-out: Ki): 386 nM
Ki ([1]; read-out: pKi (converted)): 389 nM
Compound: Oc1cccc(OCc2ccc(I)cc2)c1

Ki ([1]; read-out: Ki): 18.8 nM
Ki ([1]; read-out: pKi (converted)): 18.6 nM
Compound: Clc1ccc(OCc2ccc(I)cc2)cc1

Ki ([1]; read-out: Ki): 12 nM
Ki ([1]; read-out: pKi (converted)): 12 nM
Compound: Brc1ccc(OCc2ccc(I)cc2)cc1

Ki ([1]; read-out: Ki): 79.4 nM
Ki ([1]; read-out: pKi (converted)): 79.4 nM
Compound: Ic1ccc(COc2ccccc2)cc1

Ki ([1]; read-out: Ki): 118 nM
Ki ([1]; read-out: pKi (converted)): 117 nM
Compound: CC(C)(C)c1ccc(OCc2ccc(I)cc2)cc1

Ki ([1]; read-out: Ki): 48.2 nM
Ki ([1]; read-out: pKi (converted)): 47.9 nM
Compound: CNc1ccc(OCc2ccc(I)cc2)cc1

Ki ([1]; read-out: Ki): 20700 nM
Ki ([1]; read-out: pKi (converted)): 20900 nM
Compound: CNc1ccccc1OCc1ccc(I)cc1

Ki ([1]; read-out: Ki): 17.6 nM
Ki ([1]; read-out: pKi (converted)): 17.8 nM
Compound: CN(C)c1ccc(OCc2ccc(I)cc2)cc1

Ki ([1]; read-out: Ki): 894 nM
Ki ([1]; read-out: pKi (converted)): 891 nM
Compound: CN(C)c1cccc(OCc2ccc(I)cc2)c1

Ki ([1]; read-out: Ki): 49.4 nM
Ki ([1]; read-out: pKi (converted)): 49 nM
Compound: COc1ccc(COc2ccc(I)cc2)cc1

Drug uptake [17]: > 4 % ID/g
logD [18]: 4.16
Drug uptake [21]: < 0.5 % ID/g
Compound: COc1ccc(COc2ccc([125I])cc2)cc1

More lines, now with the values behind:

Compound: Oc1ccc(OCc2ccc(I)cc2)cc1
Ki ([1]; read-out: Ki): 113 nM
Ki ([1]; read-out: pKi (converted)): 112 nM

Compound: Oc1ccccc1OCc1ccc(I)cc1
Ki ([1]; read-out: Ki): 2830 nM
Ki ([1]; read-out: pKi (converted)): 2820 nM

Compound: Fc1ccc(OCc2ccc(I)cc2)cc1
Ki ([1]; read-out: Ki): 107 nM
Ki ([1]; read-out: pKi (converted)): 107 nM

Compound: Ic1ccc(COc2ccc(I)cc2)cc1
Ki ([1]; read-out: Ki): 21.9 nM
Ki ([1]; read-out: pKi (converted)): 21.9 nM

Compound: Nc1ccc(OCc2ccc(I)cc2)cc1
Ki ([1]; read-out: Ki): 409 nM
Ki ([1]; read-out: pKi (converted)): 407 nM

Compound: Nc1cccc(OCc2ccc(I)cc2)c1
Ki ([1]; read-out: Ki): 1530 nM
Ki ([1]; read-out: pKi (converted)): 1550 nM

Compound: Nc1ccccc1OCc1ccc(I)cc1
Ki ([1]; read-out: Ki): 1030 nM
Ki ([1]; read-out: pKi (converted)): 1020 nM

Compound: CNc1cccc(OCc2ccc(I)cc2)c1
Ki ([1]; read-out: Ki): 594 nM
Ki ([1]; read-out: pKi (converted)): 589 nM

Compound: COc1ccc(SCc2ccc(I)cc2)cc1
Ki ([1]; read-out: Ki): 530 nM
Ki ([1]; read-out: pKi (converted)): 525 nM

Compound: COc1ccc(OCc2ccc([125I])cc2)cc1
Stability [2]: 1.9%
Stability [3]: 82%
Stability [4]: 38.9%
Stability [5]: 40.6%
Stability [6]: 71.5%
Stability [7]: 100%
Stability [8]: 95%
Stability [9]: 49.7%
Kd [10]: 0.56 nM
Stability [11]: 2.5%
Stability [12]: 31.9%
Stability [13]: 42.4%
Stability [14]: 8.4%
Stability [15]: 2.4%
Stability [16]: 49.9%
Drug uptake [17]: 6.18 % ID/g
logD [18]: 4
Stability [19]: 100%
Stability [20]: 18.2%
Drug uptake [21]: < 0.5 % ID/g
Stability [22]: 10.6%
Stability [23]: 1.3%
Ratio [24]: 16.3
Stability [25]: 46.6%

Compound: CN(C)c1ccc(OCc2ccc([125I])cc2)cc1
Drug uptake [17]: > 4 % ID/g
logD [18]: 2.89
Drug uptake [21]: < 0.5 % ID/g
